Assay results reported in patent US20160242416A1, “FUNGICIDAL ISOXAZOLINE CARBINOLS” (E I DU PONT DE NEMOURS AND COMPANY, priority 2015, published 2016).
Like-named read-outs stand apart in the source and are kept apart here.

How the values were obtained:
Botrytis cinerea = experiment: Test B: gray mold, preventive spray on tomato seedlings; conditions: gray mold on tomato, 100 = 100% disease control, 0 = no control
Stagonospora nodorum = experiment: Test D: wheat glume blotch, preventive spray on wheat seedlings; conditions: wheat glume blotch, 100 = 100% disease control, 0 = no control
[1] = tested on: Puccinia recondita f sp. tritici; experiment: Test F: wheat leaf rust, preventive spray on wheat seedlings; conditions: wheat leaf rust, 100 = 100% disease control, 0 = no control
Text: (§1) General protocol for preparing test solutions for Tests A-G: the test compounds were first dissolved in acetone in an amount equal to 3% of the final volume and then suspended at the desired concentration (in ppm) in acetone and purified water (50/50 mix by volume) containing 250 ppm of the surfactant PEG400 (polyhydric alcohol esters). The resulting test suspensions were then used in Tests A-G. Compounds were sprayed at a concentration of 50 ppm (*) or 10 ppm to the point of run-off on the test plants, the equivalent of a rate of 200 g/ha or 40 g/ha, respectively.
The test solution was sprayed to the point of run-off on wheat seedlings. The following day the seedlings were inoculated with a spore suspension of Puccinia recondita f sp. tritici; (the causal agent of wheat leaf rust) and incubated in a saturated atmosphere at 20° C. for 24 h, and then moved to a growth chamber at 20° C. for 6 days, after which time visual disease ratings were made.
A dash (-) indicates no test results. Compounds with an asterisks (*) were applied at a concentration of 50 ppm, otherwise test solutions were applied at 10 ppm.

Zymoseptoria tritici = experiment: Test E: wheat leaf blotch, preventive spray on wheat seedlings; conditions: wheat leaf blotch, 100 = 100% disease control, 0 = no control
Plasmopara viticola = experiment: Test A: grape downy mildew, preventive spray on grape seedlings; type: in vivo; conditions: 100 = 100% disease control, 0 = no control
Text: A dash (-) indicates no test results.

[2] = tested on: Erysiphe graminis f sp. tritici; experiment: Test G: wheat powdery mildew, preventive spray on wheat seedlings; conditions: wheat powdery mildew, 100 = 100% disease control, 0 = no control
Text: as §1
The test solution was sprayed to the point of run-off on wheat seedlings. The following day the seedlings were inoculated with a spore dust of Erysiphe graminis f sp. tritici, (the causal agent of wheat powdery mildew) and incubated in a growth chamber at 20° C. for 8 days, after which time visual disease ratings were made.
Compounds with an asterisks (*) were applied at a concentration of 50 ppm, otherwise test solutions were applied at 10 ppm.

Phytophthora infestans = type: in vivo; conditions: tomato late blight, 100 = 100% disease control, 0 = no control

Row | Compound | Test B rating (% disease control) (Botrytis cinerea; 50 ppm (asterisk)) [%] | Test D rating (% disease control) (Stagonospora nodorum; 50 ppm (asterisk)) [%] | Test F rating (% disease control) ([1]; 50 ppm (asterisk)) [%] | Test E rating (% disease control) (Zymoseptoria tritici; 50 ppm (asterisk)) [%] | Test A rating (% disease control) (Plasmopara viticola; 50 ppm (asterisk)) [%] | Test G rating (% disease control) ([2]; 50 ppm (asterisk)) [%] | Test C rating (% disease control) (Phytophthora infestans; 50 ppm (asterisk)) [%] | Test B rating (% disease control) (Botrytis cinerea; 10 ppm) [%] | Test D rating (% disease control) (Stagonospora nodorum; 10 ppm) [%] | Test F rating (% disease control) ([1]; 10 ppm) [%] | Test E rating (% disease control) (Zymoseptoria tritici; 10 ppm) [%] | Test A rating (% disease control) (Plasmopara viticola; 10 ppm) [%] | Test G rating (% disease control) ([2]; 10 ppm) [%] | Test C rating (% disease control) (Phytophthora infestans; 10 ppm) [%]
1 | CC(O)(Cn1cncn1)C1=NOC(c2ccc(Cl)cc2)C1 (single isomer, unassigned) [Compound 36] | 0 | 53 | 17 | 0 | 11 | 99 | 0 | – | – | – | – | – | – | –
2 | OC(Cn1cncn1)(C1=NOC(COc2ccc(Cl)cc2)C1)c1ccc(Cl)cc1 (single isomer, unassigned) [Compound 62] | – | – | – | – | – | – | – | 0 | 0 | 92 | 0 | 3 | 96 | 0
3 | OC(Cc1ccc(Cl)cc1)(Cn1cncn1)C1=NOC(c2ccc(Cl)cc2)C1 (single isomer, unassigned) [Compound 94] | – | – | – | – | – | – | – | 0 | 98 | 100 | 0 | 0 | 99 | 0
4 | CC(O)(Cn1cncn1)C1=NOC(c2ccc(Cl)cc2)C1 (single isomer, unassigned) [Compound 35] | 0 | 63 | 40 | 0 | 21 | 100 | 0 | – | – | – | – | – | – | –
5 | OC(Cn1cncn1)(C1=NOC(COc2ccc(Cl)cc2)C1)c1ccc(Cl)cc1 (single isomer, unassigned) [Compound 61] | – | – | – | – | – | – | – | 0 | 94 | 100 | 99 | 4 | 100 | 0
6 | CCCC(O)(Cn1cncn1)C1=NOC(c2ccc(Cl)cc2)C1 (single isomer, unassigned) [Compound 83] | – | – | – | – | – | – | – | 0 | 87 | 99 | 0 | 1 | 99 | 0
7 | CC(C)C(O)(Cn1cncn1)C1=NOC(c2ccc(Cl)cc2)C1 (single isomer, unassigned) [Compound 4] | – | – | – | – | – | – | – | 9 | 100 | 98 | 0 | 0 | 99 | 0
8 | CC(C)C(O)(Cn1cncn1)C1=NOC(c2ccc(Cl)cc2)C1 (single isomer, unassigned) [Compound 3] | – | – | – | – | – | – | – | 46 | 100 | 97 | 0 | 9 | 100 | 0
9 | OC(Cn1cncn1)(C1=NOC(Cn2ccc(-c3ccc(Cl)cc3)n2)C1)c1ccc(Cl)cc1 (single isomer, unassigned) [Compound 66] | – | – | – | – | – | – | – | 0 | 0 | 98 | 1 | 3 | 97 | 0
10 | CCC(O)(Cn1cncn1)C1=NOC(c2ccc(Cl)cc2)C1 (mixture of isomers) [Compound 34] | 0 | 99 | 53 | 0 | 34 | 100 | 0 | – | – | – | – | – | – | –
11 | OC(Cn1cncn1)(C1=NOC(Cn2ccc(-c3ccc(C(F)(F)F)cc3)n2)C1)c1ccc(Cl)cc1 (single isomer, unassigned) [Compound 68] | – | – | – | – | – | – | – | 0 | 0 | 99 | 2 | 3 | 95 | 0
12 | C=CCC(O)(Cn1cncn1)C1=NOC(c2ccc(Cl)cc2)C1 (single isomer, unassigned) [Compound 84] | – | – | – | – | – | – | – | 94 | 73 | 9 | 0 | 11 | 95 | 0
13 | OC(Cn1cncn1)(C1=NOC(COc2ccc(C(F)(F)F)cc2)C1)c1ccc(Cl)cc1 (single isomer, unassigned) [Compound 64] | – | – | – | – | – | – | – | 0 | 50 | 80 | 2 | 12 | 94 | 0
14 | OC(Cn1cncn1)(C1=NOC(Cn2ccc(-c3ccc(Cl)cc3)n2)C1)c1ccc(Cl)cc1 (single isomer, unassigned) [Compound 65] | – | – | – | – | – | – | – | 0 | 0 | 100 | 0 | 3 | 98 | 0
15 | C=CCC(O)(Cn1cncn1)C1=NOC(c2ccc(Cl)cc2)C1 (single isomer, unassigned) [Compound 85] | – | – | – | – | – | – | – | 0 | 68 | 0 | 0 | 19 | 87 | 0
16 | OC(Cn1cncn1)(C1=NOC(c2ccc(-n3cncn3)cc2)C1)c1ccc(Cl)cc1 (mixture of isomers) [Compound 2] | – | – | – | – | – | – | – | 0 | 0 | 100 | 0 | 33 | 99 | 0
17 | OC(Cn1cncn1)(C1=NOC(COc2ccc(C(F)(F)F)cc2)C1)c1ccc(Cl)cc1 (single isomer, unassigned) [Compound 63] | – | – | – | – | – | – | – | 0 | 41 | 100 | 97 | 3 | 100 | 0
18 | CCCC(O)(Cn1cncn1)C1=NOC(c2ccc(Cl)cc2)C1 (single isomer, unassigned) [Compound 82] | – | – | – | – | – | – | – | 33 | 99 | 98 | 0 | 1 | 100 | 0
19 | OC(Cn1cncn1)(C1=NOC(Cn2ccc(-c3ccc(C(F)(F)F)cc3)n2)C1)c1ccc(Cl)cc1 (single isomer, unassigned) [Compound 67] | – | – | – | – | – | – | – | 0 | 0 | 100 | 0 | 13 | 99 | 0
20 | OC(Cc1ccc(Cl)cc1)(Cn1cncn1)C1=NOC(c2ccc(Cl)cc2)C1 (single isomer, unassigned) [Compound 93] | – | – | – | – | – | – | – | 0 | 99 | 100 | 4 | 0 | 100 | 0
